Assay results as given in patent US20250002503A1, “OXADIAZASPIRO COMPOUNDS FOR USE IN THE TREATMENT OF MOTONEURON DEGENERATION OR IN NEUROPROTECTION” (ESTEVE PHARMACEUTICALS, S.A., priority 2021, published 2025).
Where two headings read alike, the source gives them in different places.

Columns and labels:
[1] = system: rhizotomized mice (L4-L5 spinal nerve section); experiment: L4-L5 spinal roots injury (rhizotomy): MN survival, glial reactivity, tolerability; settings: for number of spinal MNs in the ipsilateral ventral horn (L4-L5) / astroglial reactivity, GFAP integrated density / microglial reactivity, IBA1 integrated density: 42 dpi, mean±SEM
Experimental: Briefly, the L4-L5 spinal roots were exposed by a small laminectomy on the right side. Then, roots were cut at the exit from the intervertebral foramina and the root stumps were separated. Mice were cared until recovery in warm environment.
The compounds were dissolved in 0.5% hydroxypropyl-methylcellulose (HPMC; Sigma-Aldrich) in distilled water. The compounds were administered by intraperitoneal (i.p.) route twice daily (bid) in a volume of 10 ml/kg. Administrations were given from 30 min after rhizotomy surgery until 42 days post-injury (dpi), the end of the study; in the SOD1^G93A study, treatments were given from 8 to 16 weeks of age.
At the end of follow up (42 days post-injury (dpi)) for rhizotomy and 16 weeks of age for ALS mice) the animals were deeply anesthetized and transcardially perfused with 4% paraformaldehyde in PBS. The lumbar spinal cord and the TA muscle were harvested and cryopreserved in 30% sucrose solution in PB. The spinal cords were serially cut in 20 μm-thick transverse sections with a cryostat (Leica). For MN counting, L4-L5 spinal cord sections separated 100 μm were stained for 3 h with an acidified solution of 3.1 mM cresyl violet.
Finally, sides were mounted with Fluoromount G. To quantify glial cell reactivity, images of the ventral horn were acquired with an epifluorescence microscope (Nikon Eclipse Ni, Japan) using the same conditions for each analyzed marker. After defining a threshold for background correction, the integrated density of GFAP or Iba1 labeling was measured using ImageJ software.

SOD1^G93A mice = settings: for NMJ innervation (proportion of innervated endplates) of hindlimb muscle: SOD1^G93A mice at 16 weeks; for NMJ innervation (proportion of innervated endplates) of hindlimb muscle / astrocyte activation (GFAP) in ventral horn: compounds 5 mg/kg; for NMJ innervation (proportion of innervated endplates) of hindlimb muscle / CMAP amplitude of TA and plantar muscles / astrocyte activation (GFAP) in ventral horn: PRE-084 0.25 mg/kg i.p. bid; for CMAP amplitude of TA and plantar muscles / number of surviving spinal MNs per section / astrocyte activation (GFAP) in ventral horn: SOD1^G93A mice; for CMAP amplitude of TA and plantar muscles: 11 and 13 weeks, compound 5 mg/kg; for number of surviving spinal MNs per section: 16 weeks of age, mean±SEM; for astrocyte activation (GFAP) in ventral horn: 16 weeks
Experimental: Motor nerve conduction tests were performed before the surgery to obtain baseline values and at the end of the follow up in the rhizotomy model, whereas the SOD1^G93A mice were evaluated at 8 weeks (prior to starting drug administration) and then every 2-3 weeks until the end point at 16 weeks of age. The sciatic nerve was stimulated by means of single pulses delivered through needle electrodes placed at the sciatic notch. The compound muscle action potential (CMAP) was recorded from tibialis anterior (TA), gastrocnemius (GM) and plantar interossei muscles with microneedle electrodes (Mancuso et al., 2011). The CMAPs were amplified to measure the latency to the onset and the amplitude from baseline to the maximal negative peak. The mice were anesthetized with pentobarbital (50 mg/kg i.p.) and their body temperature was maintained by means of a thermostated warming pad.
For neuromuscular junctions (NMJ) labeling, 50 μm-thick longitudinal sections of TA muscle were serially cut. Sections were blocked with 5% normal donkey serum and incubated with primary antibodies rabbit anti-synaptophysin (1:500; AB32127, Abcam) and chicken anti-neurofilament 200 (NF200, 1:1000; AB5539, Millipore, USA) 48 h at 4° C. After washes, sections were incubated overnight with secondary antibody Alexa Fluor 594-donkey anti-rabbit and anti-chicken (1:200; A11042-A21207, Invitrogen, USA) and Alexa 488 conjugated α-bungarotoxin (1:500; B13422, Life Technologies, USA). Confocal images were captured (LSM 700 Axio Observer, Carl Zeiss, 40×Oil/z0.5) and the maximum projection images generated from 1.3 μm z projections. The proportion of innervated NMJs was calculated by classifying each endplate as occupied (when presynaptic terminals overly the endplate) or vacant (no presynaptic label in contact with the endplate). At least 60 endplates were analyzed per muscle.

[2] = system: motoneurons (MNs) in spinal cord organotypic cultures; experiment: Spinal cord organotypic cultures (SCOCs) under THA chronic excitotoxicity, SMI-32 positive MN count; assay type: cell-based, Sprague-Dawley rats; settings: THA 100 μM, 28 DIV
Experimental: Briefly, the spinal cord was collected and cut in 350 μm thick transverse sections with a Mcllwain Tissue Chopper. Four lumbar sections per sample were transferred onto Millicell-CM nets (0.4 μm, PICM03050, Millipore) in medium [50% (v/v) minimal essential medium (MEM, M5775, Sigma), 2 mM glutamine, 25 mM HEPES, 25% (v/v) Hank's Balanced Salt Solution (HBSS^−/−, 14175, Gibco) supplemented with 25.6 mg/ml glucose and 25% (v/v) heat-inactivated horse serum (26050-088, Gibco), pH=7.2]. Cultures were maintained at 37° C. in a 5% CO2 humidified cabin and let to stabilize. After 7 days in vitro (DIV), DL-threo-b-hydroxyaspartic acid (THA; 100 μM) was added to induce chronic excitotoxicity (Rothstein et al., 1993). The neuroprotective effect of each Sig-1R ligand was assessed by its coaddition to the culture with THA and renewing at each medium change. […] In vitro experiments were performed in three independent cultures, with at least 12 different SCOCs for each experimental condition.
Slices were maintained for 28 DIV and then fixed with 4% paraformaldehyde. […] MN survival was assessed by counting all SMI-32 positive neurons in each spinal cord using the Cell Counter plugin of ImageJ software.

Sig-2R = Sig-2R (Homo sapiens, UniProt Q5BJF2); experiment: Affinity for the Sig-2R; assay type: binding; settings: not shown
Chain of Sig-2R (Q5BJF2 whole entry): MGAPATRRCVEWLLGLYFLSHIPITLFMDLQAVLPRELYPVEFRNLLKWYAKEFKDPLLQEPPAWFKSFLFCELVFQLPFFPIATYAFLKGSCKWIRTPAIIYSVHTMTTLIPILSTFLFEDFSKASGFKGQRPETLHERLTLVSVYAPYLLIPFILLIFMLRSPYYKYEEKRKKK
Experimental: (§1) A selectivity profile (Spectrum Screen) including a panel with more than 180 binding assays for different receptors, ion channels, transporters and enzymes was performed for compound A and compound B at EurofinsPanlabs according to their specifications.

in vivo [3] = experiment: in vivo; set-up: species or system male SOD1^G93A mice; settings: mouse, ip; for concentration at 15 min: male, SOD1^G93A
Experimental: Plasma levels were determined in the two in vivo models evaluated to be able to associate the pharmacological activity with the levels present in plasma. […] […] […] Results are expressed as mean±standard deviation (n=2-6).

human Sig-1R = human Sig-1R (Homo sapiens, UniProt Q99720); experiment: Affinity for the human Sig-1R; assay type: binding
Chain of human Sig-1R (Q99720 whole entry): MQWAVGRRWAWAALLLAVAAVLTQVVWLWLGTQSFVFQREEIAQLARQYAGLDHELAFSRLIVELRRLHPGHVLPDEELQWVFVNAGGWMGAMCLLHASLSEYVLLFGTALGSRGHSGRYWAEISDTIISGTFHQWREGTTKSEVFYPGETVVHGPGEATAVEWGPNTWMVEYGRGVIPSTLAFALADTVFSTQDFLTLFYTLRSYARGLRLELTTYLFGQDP
Experimental: as §1

[4] = Pharmacokinetics in plasma and brain after single i.p. dose; settings: for half-life: t1/2 (terminal half-life); for half-life / AUC, brain / Cmax, brain / penetration into the brain: single i.p. 10 mg/kg; for half-life / AUC, brain / Cmax, brain: female mice; for penetration into the brain: mice
Experimental: (§2) Blood and brain samples were extracted at selected time points (15 min, 1, 3 and 6 h) from two animals per sampling point. Blood samples were collected by intracardiac puncture into heparinized tubes. Plasma was obtained by blood centrifugation at 4° C. and 2280 g for 10 min. Plasma and brain samples were kept at −80° C. until analysis. Brains were homogenized with Dulbecco's phosphate saline buffer pH 7.4 (4 ml/g tissue). Plasma and brain samples were assayed by ultra-performance liquid chromatography-triple quadrupole mass spectrometry (UPLC-MS/MS) after protein precipitation. Standard pharmacokinetic parameters, such as the area under the curve (AUC), peak plasma concentration (Cmax), time to peak concentration (tmax), and terminal half-life (t1/2) were determined by noncompartmental analysis of the plasma and brain concentration-time curves (Phoenix v.6.2.1.51, Pharsight, CA).

in vivo [5] = settings: female, C57-BL6, mouse, ip, 10 mg/kg; for half-life: t1/2 (terminal half-life)
Experimental: as §2

[6] = cited from earlier work
[7] = Plasma levels in the rhizotomy model after chronic i.p. administration; set-up: species or system female mice (B6SJL); settings: mouse, in vivo, ip, 0.25 mg/kg
[8] = 0.5 mg/kg bid i.p., not significant
[9] = 5 mg/kg bid i.p., untreated 19×10^4±5×10^4
[10] = 5 mg/kg bid i.p., untreated 26×10^4±3×10^4
[11] = twice daily i.p. administration for 6 weeks
[12] = 5 mg/kg i.p. bid, untreated 6.9±0.5, WT 25.3±0.5
[13] = female, C57-BL6, mouse, brain, ip, 10 mg/kg
[14] = female, C57-BL6, mouse, plasma, ip, 10 mg/kg

| Structure (SMILES) | number of spinal MNs in the ipsilateral ventral horn (L4-L5) [1, 8] | astroglial reactivity, GFAP integrated density [1, 9] | microglial reactivity, IBA1 integrated density [1, 10] | toxicity on chronic administration [1, 11] | NMJ innervation (proportion of innervated endplates) of hindlimb muscle (SOD1^G93A mice) | CMAP amplitude of TA and plantar muscles (SOD1^G93A mice) | number of surviving spinal MNs per section (SOD1^G93A mice; [12]) | astrocyte activation (GFAP) in ventral horn (SOD1^G93A mice) | IC50 (Sig-2R) | concentration at 15 min (in vivo [3]; 5 mg/kg) | affinity for the human Sig-1R (human Sig-1R) | AUC, brain ([4]; brain) | Cmax, brain ([4]; brain) | penetration into the brain [4] | further results |
| --- | --- | --- | --- | --- | --- | --- | --- | --- | --- | --- | --- | --- | --- | --- | --- |
| C[C@@H]1OC2(CCN(Cc3ccc(F)cc3)CC2)CN(C)C1=O [Compound A, (S)-9-(4-fluorobenzyl)-2,4-dimethyl-1-oxa-4,9-diazaspiro[5.5]undecan-3-one] | 7.6±0.9 | 4×10^4±0.4×10^4 | 13×10^4±2×10^4 | did not cause toxicity | tendency to preserve NMJ innervation | significantly prevented the decline in amplitude of the CMAP | 10.8±1.1 | significant decrease of astrocyte activation | > 10 µM | ~500 ng/mL | high affinity | 4873 ng·h/g | 5405 ng/g | good penetration into the brain | number of spinal MNs in the ipsilateral ventral horn (L4-L5) ([1]; 5 mg/kg/bid i.p. for 6 weeks, untreated injured 6.8±0.3): 8.6±0.6; number of SMI-32 positive neurons vs THA condition ([2]; tested at 0.03, 0.3, 3 and 30 μM, significant at three concentrations): significantly more SMI-32 positive neurons; estimated brain concentration (in vivo [3]; 5 mg/kg): about two-fold the concentration of compound B; Kp ([4]; female, C57-BL6, mouse, brain and plasma, ip, 10 mg/kg): 4.4; Tmax [4, 13]: 0.25 h; half-life [4, 13]: > 5 h; AUC [4, 14]: 1120 ng·h/mL; Cmax [4, 14]: 1350 ng/mL; Tmax [4, 14]: 0.25 h; half-life [4, 14]: > 5 h |
| CCN1CC2(CCN(Cc3ccc(C#N)c(F)c3)CC2)O[C@@H](C)C1=O [Compound B, (S)-4-((4-ethyl-2-methyl-3-oxo-1-oxa-4,9-diazaspiro[5.5]undecan-9-yl)methyl)-2-fluorobenzonitrile] | 7.4±0.7 | 15×10^4±2.7×10^4 | 25×10^4±4×10^4 | did not cause toxicity | tendency to preserve NMJ innervation | – | 8.5±1.0 | significant decrease of astrocyte activation | > 10 µM | ~500 ng/mL | high affinity | 1698 ng·h/g | 2652 ng/g | good penetration into the brain | body weight compared with the vehicle group [1, 11]: no difference in body weight; preservation of MNs (SMI-32 positive) vs THA condition ([2]; 3 and 30 μM): significantly preserved MNs; AUC (in vivo [5]): 802 ng·h/mL; Cmax (in vivo [5]): 1340 ng/mL; Kp (in vivo [5]): 2.1; Tmax (in vivo [5]): 0.25 h; half-life (in vivo [5]; brain): 3.4 h; half-life (in vivo [5]; plasma): 2.2 h |
| O=C(OCCN1CCOCC1)C1(c2ccccc2)CCCCC1 [PRE-084, reference compound] | – | – | – | – | significantly increased the proportion of innervated endplates | higher CMAP amplitude values | – | significant decrease of astrocyte activation | – | – | good affinity | – | – | – | astroglial reactivity, GFAP integrated density ([1]; 0.25 mg/kg bid i.p.): 6×10^4±0.9×10^4; microglial reactivity, IBA1 integrated density ([1]; 0.25 mg/kg bid i.p.): 15×10^4±1.4×10^4; number of spinal MNs in the ipsilateral ventral horn (L4-L5) ([1]; 0.25 mg/kg bid i.p., positive control): 8.9±0.4; Cmax, plasma ([6]; mouse, in vivo, ip, 10 mg/kg): 659 ng/mL; Cmax, brain ([6]; single i.p. 10 mg/kg, concentration at 5 min post-administration, brain): 774 ng/g; number of surviving spinal MNs per section (SOD1^G93A mice; 0.25 mg/kg i.p. bid): 12.4±0.9; Plasma concentration 30 min post-administration [7]: 3.6 ng/mL; Plasma concentration 30 min post-administration (in vivo [3]; 0.25 mg/kg): 2.6 ng/mL |
